# Experiments:
# Assay in all cases: Test B preemergence/postemergence greenhouse plant response rating 0 to 10
# cotton = assay type: in vivo, Gossypium hirsutum; settings: for Plant response rating, Cotton: 0 to 10 scale
# How it was run: (§1)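 Planted seeds are treated preemergence with compound dissolved in a non-phytotoxic solvent, while postemergence applications go onto plants of two to eighteen cm. Plants stay in the greenhouse twelve to sixteen days and are then rated visually relative to controls.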
# velvetleaf = assay type: in vivo, Abutilon theophrasti; settings: for Plant response rating, Velvetleaf: 0 to 10 scale
# How it was run: as §1
# purple nutsedge = assay type: in vivo, Cyperus rotundus; settings: for Plant response rating, Nutsedge: 0 to 10 scale
# How it was run: as §1
# crabgrass = assay type: in vivo, Digitaria spp.; settings: for Plant response rating, Crabgrass: 0 to 10 scale
# How it was run: as §1
# sugar beet = assay type: in vivo, Beta vulgaris; settings: for Plant response rating, Sugar beet: 0 to 10 scale
# How it was run: as §1
# chickweed = assay type: in vivo, Stellaria media; settings: for Plant response rating, Chickweed: 0 to 10 scale
# How it was run: as §1
# sorghum = assay type: in vivo, Sorghum bicolor; settings: for Plant response rating, Sorghum: 0 to 10 scale
# How it was run: as §1
# corn = assay type: in vivo, Zea mays; settings: for Plant response rating, Corn: 0 to 10 scale
# How it was run: as §1
# morningglory = assay type: in vivo, Ipomoea hederacea; settings: for Plant response rating, Morningglory: 0 to 10 scale
# How it was run: as §1
# giant foxtail = assay type: in vivo, Setaria faberii; settings: for Plant response rating, Giant foxtail: 0 to 10 scale
# How it was run: as §1
# blackgrass = assay type: in vivo, Alopecurus myosuroides; settings: for Plant response rating, Blackgrass: 0 to 10 scale
# How it was run: as §1
# barley = assay type: in vivo, Hordeum vulgare; settings: for Plant response rating, Barley: 0 to 10 scale
# How it was run: as §1
# cocklebur = assay type: in vivo, Xanthium pensylvanicum; settings: for Plant response rating, Cocklebur: 0 to 10 scale
# How it was run: as §1
# barnyardgrass = assay type: in vivo, Echinochloa crus-galli; settings: for Plant response rating, Barnyardgrass: 0 to 10 scale
# How it was run: as §1
# cheatgrass = assay type: in vivo, Bromus secalinus; settings: for Plant response rating, Cheatgrass: 0 to 10 scale
# How it was run: as §1
# rice = assay type: in vivo, Oryza sativa; settings: for Plant response rating, Rice: 0 to 10 scale
# How it was run: as §1
# wild buckwheat = assay type: in vivo, Polygonum convolvulus; settings: for Plant response rating, Wild buckwheat: 0 to 10 scale
# How it was run: as §1
# wheat = assay type: in vivo, Triticum aestivum; settings: for Plant response rating, Wheat: 0 to 10 scale
# How it was run: as §1
# soybean = assay type: in vivo, Glycine max; settings: for Plant response rating, Soybean: 0 to 10 scale
# How it was run: as §1
# bedstraw = assay type: in vivo, Galium aparine; settings: for Plant response rating, Bedstraw: 0 to 10 scale
# How it was run: as §1
# wild oat = assay type: in vivo, Avena fatua; settings: for Plant response rating, Wild oat: 0 to 10 scale
# How it was run: as §1
# lambsquarters = assay type: in vivo, Chenopodium album; settings: for Plant response rating, Lambsquarter: 0 to 10 scale
# How it was run: as §1
# rape = assay type: in vivo, Brassica napus; settings: for Plant response rating, Rape: 0 to 10 scale
# How it was run: as §1
structure (smiles),measurement,setting,value
C#CC(C)Oc1cc(-c2nn3c(c2Cl)CCCC3)c(Cl)cc1Cl (centres unmarked) [Compound 74],"Plant response rating, Cotton","cotton; POSTEMERGENCE, Rate 50 g/ha",10
same,"Plant response rating, Cotton","cotton; PREEMERGENCE, Rate 50 g/ha",0
same,"Plant response rating (0 to 10 scale), Cotton","cotton; PREEMERGENCE, Rate 200 g/ha",0
same,"Plant response rating, Cotton","cotton; Rate 200 g/ha, POSTEMERGENCE",10
same,"Plant response rating, Velvetleaf","velvetleaf; POSTEMERGENCE, Rate 50 g/ha",10
same,"Plant response rating, Velvetleaf","velvetleaf; PREEMERGENCE, Rate 50 g/ha",5
same,"Plant response rating (0 to 10 scale), Velvetleaf","velvetleaf; PREEMERGENCE, Rate 200 g/ha",9
same,"Plant response rating, Velvetleaf","velvetleaf; Rate 200 g/ha, POSTEMERGENCE",10
same,"Plant response rating, Nutsedge","purple nutsedge; POSTEMERGENCE, Rate 50 g/ha",2
same,"Plant response rating, Nutsedge","purple nutsedge; PREEMERGENCE, Rate 50 g/ha",0
same,"Plant response rating (0 to 10 scale), Nutsedge","purple nutsedge; PREEMERGENCE, Rate 200 g/ha",0
same,"Plant response rating, Nutsedge","purple nutsedge; Rate 200 g/ha, POSTEMERGENCE",2
same,"Plant response rating, Crabgrass","crabgrass; POSTEMERGENCE, Rate 50 g/ha",3
same,"Plant response rating, Crabgrass","crabgrass; PREEMERGENCE, Rate 50 g/ha",2
same,"Plant response rating (0 to 10 scale), Crabgrass","crabgrass; PREEMERGENCE, Rate 200 g/ha",6
same,"Plant response rating, Crabgrass","crabgrass; Rate 200 g/ha, POSTEMERGENCE",5
same,"Plant response rating, Sugar beet","sugar beet; POSTEMERGENCE, Rate 50 g/ha",10
same,"Plant response rating, Sugar beet","sugar beet; PREEMERGENCE, Rate 50 g/ha",0
same,"Plant response rating (0 to 10 scale), Sugar beet","sugar beet; PREEMERGENCE, Rate 200 g/ha",10
same,"Plant response rating, Sugar beet","sugar beet; Rate 200 g/ha, POSTEMERGENCE",10
same,"Plant response rating, Chickweed","chickweed; POSTEMERGENCE, Rate 50 g/ha",6
same,"Plant response rating, Chickweed","chickweed; PREEMERGENCE, Rate 50 g/ha",0
same,"Plant response rating (0 to 10 scale), Chickweed","chickweed; PREEMERGENCE, Rate 200 g/ha",5
same,"Plant response rating, Chickweed","chickweed; Rate 200 g/ha, POSTEMERGENCE",7
same,"Plant response rating, Sorghum","sorghum; POSTEMERGENCE, Rate 50 g/ha",5
same,"Plant response rating, Sorghum","sorghum; PREEMERGENCE, Rate 50 g/ha",0
same,"Plant response rating (0 to 10 scale), Sorghum","sorghum; PREEMERGENCE, Rate 200 g/ha",0
same,"Plant response rating, Sorghum","sorghum; Rate 200 g/ha, POSTEMERGENCE",7
same,"Plant response rating, Corn","corn; POSTEMERGENCE, Rate 50 g/ha",2
same,"Plant response rating, Corn","corn; PREEMERGENCE, Rate 50 g/ha",0
same,"Plant response rating (0 to 10 scale), Corn","corn; PREEMERGENCE, Rate 200 g/ha",0
same,"Plant response rating, Corn","corn; Rate 200 g/ha, POSTEMERGENCE",4
same,"Plant response rating, Morningglory","morningglory; POSTEMERGENCE, Rate 50 g/ha",9
same,"Plant response rating, Morningglory","morningglory; PREEMERGENCE, Rate 50 g/ha",0
same,"Plant response rating (0 to 10 scale), Morningglory","morningglory; PREEMERGENCE, Rate 200 g/ha",0
same,"Plant response rating, Morningglory","morningglory; Rate 200 g/ha, POSTEMERGENCE",9
same,"Plant response rating, Giant foxtail","giant foxtail; POSTEMERGENCE, Rate 50 g/ha",5
same,"Plant response rating, Giant foxtail","giant foxtail; PREEMERGENCE, Rate 50 g/ha",2
same,"Plant response rating (0 to 10 scale), Giant foxtail","giant foxtail; PREEMERGENCE, Rate 200 g/ha",6
same,"Plant response rating, Giant foxtail","giant foxtail; Rate 200 g/ha, POSTEMERGENCE",5
same,"Plant response rating, Blackgrass","blackgrass; POSTEMERGENCE, Rate 50 g/ha",6
same,"Plant response rating, Blackgrass","blackgrass; PREEMERGENCE, Rate 50 g/ha",0
same,"Plant response rating (0 to 10 scale), Blackgrass","blackgrass; PREEMERGENCE, Rate 200 g/ha",8
same,"Plant response rating, Blackgrass","blackgrass; Rate 200 g/ha, POSTEMERGENCE",6
same,"Plant response rating, Barley","barley; POSTEMERGENCE, Rate 50 g/ha",2
same,"Plant response rating, Barley","barley; PREEMERGENCE, Rate 50 g/ha",0
same,"Plant response rating (0 to 10 scale), Barley","barley; PREEMERGENCE, Rate 200 g/ha",0
same,"Plant response rating, Barley","barley; Rate 200 g/ha, POSTEMERGENCE",4
same,"Plant response rating, Cocklebur","cocklebur; POSTEMERGENCE, Rate 50 g/ha",9
same,"Plant response rating, Cocklebur","cocklebur; PREEMERGENCE, Rate 50 g/ha",0
same,"Plant response rating (0 to 10 scale), Cocklebur","cocklebur; PREEMERGENCE, Rate 200 g/ha",0
same,"Plant response rating, Cocklebur","cocklebur; Rate 200 g/ha, POSTEMERGENCE",10
same,"Plant response rating, Barnyardgrass","barnyardgrass; POSTEMERGENCE, Rate 50 g/ha",5
same,"Plant response rating, Barnyardgrass","barnyardgrass; PREEMERGENCE, Rate 50 g/ha",0
same,"Plant response rating (0 to 10 scale), Barnyardgrass","barnyardgrass; PREEMERGENCE, Rate 200 g/ha",1
same,"Plant response rating, Barnyardgrass","barnyardgrass; Rate 200 g/ha, POSTEMERGENCE",7
same,"Plant response rating, Cheatgrass","cheatgrass; POSTEMERGENCE, Rate 50 g/ha",6
same,"Plant response rating, Cheatgrass","cheatgrass; PREEMERGENCE, Rate 50 g/ha",4
same,"Plant response rating (0 to 10 scale), Cheatgrass","cheatgrass; PREEMERGENCE, Rate 200 g/ha",4
same,"Plant response rating, Cheatgrass","cheatgrass; Rate 200 g/ha, POSTEMERGENCE",6
same,"Plant response rating, Rice","rice; POSTEMERGENCE, Rate 50 g/ha",3
same,"Plant response rating, Rice","rice; PREEMERGENCE, Rate 50 g/ha",0
same,"Plant response rating (0 to 10 scale), Rice","rice; PREEMERGENCE, Rate 200 g/ha",0
same,"Plant response rating, Rice","rice; Rate 200 g/ha, POSTEMERGENCE",6
same,"Plant response rating, Wild buckwheat","wild buckwheat; POSTEMERGENCE, Rate 50 g/ha",10
same,"Plant response rating, Wild buckwheat","wild buckwheat; PREEMERGENCE, Rate 50 g/ha",5
same,"Plant response rating (0 to 10 scale), Wild buckwheat","wild buckwheat; PREEMERGENCE, Rate 200 g/ha",9
same,"Plant response rating, Wild buckwheat","wild buckwheat; Rate 200 g/ha, POSTEMERGENCE",10
same,"Plant response rating, Wheat","wheat; POSTEMERGENCE, Rate 50 g/ha",4
same,"Plant response rating, Wheat","wheat; PREEMERGENCE, Rate 50 g/ha",0
same,"Plant response rating (0 to 10 scale), Wheat","wheat; PREEMERGENCE, Rate 200 g/ha",0
same,"Plant response rating, Wheat","wheat; Rate 200 g/ha, POSTEMERGENCE",5
same,"Plant response rating, Soybean","soybean; POSTEMERGENCE, Rate 50 g/ha",6
same,"Plant response rating, Soybean","soybean; PREEMERGENCE, Rate 50 g/ha",0
same,"Plant response rating (0 to 10 scale), Soybean","soybean; PREEMERGENCE, Rate 200 g/ha",0
same,"Plant response rating, Soybean","soybean; Rate 200 g/ha, POSTEMERGENCE",6
same,"Plant response rating, Bedstraw","bedstraw; POSTEMERGENCE, Rate 50 g/ha",8
same,"Plant response rating, Bedstraw","bedstraw; PREEMERGENCE, Rate 50 g/ha",0
same,"Plant response rating (0 to 10 scale), Bedstraw","bedstraw; PREEMERGENCE, Rate 200 g/ha",9
same,"Plant response rating, Bedstraw","bedstraw; Rate 200 g/ha, POSTEMERGENCE",9
same,"Plant response rating, Wild oat","wild oat; POSTEMERGENCE, Rate 50 g/ha",4
same,"Plant response rating, Wild oat","wild oat; PREEMERGENCE, Rate 50 g/ha",0
same,"Plant response rating (0 to 10 scale), Wild oat","wild oat; PREEMERGENCE, Rate 200 g/ha",3
same,"Plant response rating, Wild oat","wild oat; Rate 200 g/ha, POSTEMERGENCE",4
same,"Plant response rating, Lambsquarter","lambsquarters; POSTEMERGENCE, Rate 50 g/ha",9
same,"Plant response rating, Lambsquarter","lambsquarters; PREEMERGENCE, Rate 50 g/ha",9
same,"Plant response rating (0 to 10 scale), Lambsquarter","lambsquarters; PREEMERGENCE, Rate 200 g/ha",10
same,"Plant response rating, Lambsquarter","lambsquarters; Rate 200 g/ha, POSTEMERGENCE",10
same,"Plant response rating, Rape","rape; POSTEMERGENCE, Rate 50 g/ha",10
same,"Plant response rating, Rape","rape; PREEMERGENCE, Rate 50 g/ha",0
same,"Plant response rating (0 to 10 scale), Rape","rape; PREEMERGENCE, Rate 200 g/ha",7
same,"Plant response rating, Rape","rape; Rate 200 g/ha, POSTEMERGENCE",10
